According to patent US20180273531A1, “PYRIMIDINE COMPOUND AND MEDICAL USE THEREOF” (Japan Tobacco Inc., priority 2004, published 2018):

Test system: colorectal cancer cell line HT-29 cells
Assay: Growth inhibitory effect against cancer cell lines (3H-thymidine uptake), HT-29
Type: cell-based
Details: Homo sapiens, HT-29, inhibition of 3H-thymidine uptake; test substance 18 hrs, then 3H-thymidine 6 hrs; triplicate
In short: (§1)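 Cells seeded at 1.0×10^4/well, grown 24 hrs, then exposed to compound in DMSO for 18 hrs before 6 hrs pulse with ^3H-thymidine (0.25 μCi/well). Harvested cell-incorporated radioactivity counted; IC50 is the concentration halving uptake versus DMSO control, triplicate.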

| Structure (SMILES) | IC50 [µM] |
| --- | --- |
| C#Cc1ccc(Nc2cc(=O)n(C)c3c2c(=O)n(C2CC2)c(=O)n3-c2cccc(NS(=O)(=O)CCC)c2)c(F)c1 [Example 1-320] | < 0.01 |
| Cn1c(=O)cc(Nc2ccc(I)cc2Cl)c2c(=O)n(C3CC3)c(=O)n(-c3cccc(NS(C)(=O)=O)c3)c21 [Example 1-322] | < 0.01 |
| CNC(=O)Nc1cccc(-n2c(=O)n(C3CC3)c(=O)c3c(Nc4ccc(Br)cc4F)cc(=O)n(C)c32)c1 [Example 1-325] | 0.01 to 0.1 |
| CONC(=O)Nc1cccc(-n2c(=O)n(C3CC3)c(=O)c3c(Nc4ccc(Br)cc4F)cc(=O)n(C)c32)c1 [Example 1-327] | 0.01 to 0.1 |
| Cn1c(=O)cc(Nc2ccc3sccc3c2)c2c(=O)n(C3CC3)c(=O)n(-c3ccccc3)c21 [Example 1-328] | 0.01 to 0.1 |
| C#Cc1ccc(Nc2cc(=O)n(C)c3c2c(=O)n(C2CC2)c(=O)n3-c2cccc(NS(C)(=O)=O)c2)c(C)c1 [Example 1-336] | < 0.01 |
| C#Cc1ccc(Nc2cc(=O)n(C)c3c2c(=O)n(C2CC2)c(=O)n3-c2cccc(NS(C)(=O)=O)c2)c(Cl)c1 [Example 1-337] | < 0.01 |
| Cn1c(=O)cc(Nc2ccc(CCF)cc2F)c2c(=O)n(C3CC3)c(=O)n(-c3cccc(NS(C)(=O)=O)c3)c21 [Example 1-338] | < 0.01 |
| Cc1cc(I)ccc1Nc1cc(=O)n(C)c2c1c(=O)n(C1CC1)c(=O)n2-c1cccc(NS(C)(=O)=O)c1 [Example 1-340] | < 0.01 |

Test system: p15 protein
Assay: Evaluation of p15 induction activity (Western blotting)
Type: cell-based
Details: test substance 0.1 μM, 24 hrs, ACHN cells or HT-29 cells, compared to DMSO, n=2
In short: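 p15 protein quantified by densitometry of anti-p15 Western blots (10 μg protein per lane, mean of n=2). Samples came from HT-29 or ACHN cells given 0.1 μM compound for 24 h after 24 h plating, with DMSO as control.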

| Structure (SMILES) | fold induction at 0.1 µM |
| --- | --- |
| C#Cc1ccc(Nc2cc(=O)n(C)c3c2c(=O)n(C2CC2)c(=O)n3-c2cccc(NS(=O)(=O)CCC)c2)c(F)c1 [Example 1-320] | ≥ 1.5 |
| Cn1c(=O)cc(Nc2ccc(I)cc2Cl)c2c(=O)n(C3CC3)c(=O)n(-c3cccc(NS(C)(=O)=O)c3)c21 [Example 1-322] | ≥ 1.5 |
| CNC(=O)Nc1cccc(-n2c(=O)n(C3CC3)c(=O)c3c(Nc4ccc(Br)cc4F)cc(=O)n(C)c32)c1 [Example 1-325] | ≥ 1.5 |
| CONC(=O)Nc1cccc(-n2c(=O)n(C3CC3)c(=O)c3c(Nc4ccc(Br)cc4F)cc(=O)n(C)c32)c1 [Example 1-327] | ≥ 1.5 |
| Cn1c(=O)cc(Nc2ccc3sccc3c2)c2c(=O)n(C3CC3)c(=O)n(-c3ccccc3)c21 [Example 1-328] | ≥ 1.5 |
| C#Cc1ccc(Nc2cc(=O)n(C)c3c2c(=O)n(C2CC2)c(=O)n3-c2cccc(NS(C)(=O)=O)c2)c(C)c1 [Example 1-336] | ≥ 1.5 |
| C#Cc1ccc(Nc2cc(=O)n(C)c3c2c(=O)n(C2CC2)c(=O)n3-c2cccc(NS(C)(=O)=O)c2)c(Cl)c1 [Example 1-337] | ≥ 1.5 |
| Cn1c(=O)cc(Nc2ccc(CCF)cc2F)c2c(=O)n(C3CC3)c(=O)n(-c3cccc(NS(C)(=O)=O)c3)c21 [Example 1-338] | ≥ 1.5 |
| Cc1cc(I)ccc1Nc1cc(=O)n(C)c2c1c(=O)n(C1CC1)c(=O)n2-c1cccc(NS(C)(=O)=O)c1 [Example 1-340] | ≥ 1.5 |

Test system: p27 protein
Assay: p27 protein induction test (Western blotting)
Type: cell-based
Details: test substance (0.1 1M), 24 hrs, ACHN cells or HT-29 cells, compared to DMSO, n=2
Procedure: ACHN cells or HT-29 cells were cultured in a 6 well plate at 2.5×10^5 cells/1.8 mL/well for 24 hrs, a test substance ([…]) dissolved in DMSO was added. After 24 hrs, cells were detached using trypsin-EDTA (ethylene diamine tetraacetic acid) and solubilized with NuPAGE LDS sample buffer (Invitrogen). Using an RC DC protein assay kit (BIO-RAD), the protein concentration of the sample was quantitated, and a sample in an amount corresponding to 10 μg of BSA (bovine serum albumin) was analyzed by Western blotting using an anti-p27 antibody. The density of the band stained with the anti-p27 antibody was measured by a densitometer to quantify the amount of p27 protein. As a control, DMSO was used and the test was performed with n=2 and the average protein amount was determined.

| Structure (SMILES) | fold induction at 0.1 µM |
| --- | --- |
| C#Cc1ccc(Nc2cc(=O)n(C)c3c2c(=O)n(C2CC2)c(=O)n3-c2cccc(NS(=O)(=O)CCC)c2)c(F)c1 [Example 1-320] | ≥ 1.5 |
| Cn1c(=O)cc(Nc2ccc(I)cc2Cl)c2c(=O)n(C3CC3)c(=O)n(-c3cccc(NS(C)(=O)=O)c3)c21 [Example 1-322] | ≥ 1.5 |
| CNC(=O)Nc1cccc(-n2c(=O)n(C3CC3)c(=O)c3c(Nc4ccc(Br)cc4F)cc(=O)n(C)c32)c1 [Example 1-325] | ≥ 1.5 |
| CONC(=O)Nc1cccc(-n2c(=O)n(C3CC3)c(=O)c3c(Nc4ccc(Br)cc4F)cc(=O)n(C)c32)c1 [Example 1-327] | ≥ 1.5 |
| Cn1c(=O)cc(Nc2ccc3sccc3c2)c2c(=O)n(C3CC3)c(=O)n(-c3ccccc3)c21 [Example 1-328] | ≥ 1.5 |
| C#Cc1ccc(Nc2cc(=O)n(C)c3c2c(=O)n(C2CC2)c(=O)n3-c2cccc(NS(C)(=O)=O)c2)c(C)c1 [Example 1-336] | ≥ 1.5 |
| C#Cc1ccc(Nc2cc(=O)n(C)c3c2c(=O)n(C2CC2)c(=O)n3-c2cccc(NS(C)(=O)=O)c2)c(Cl)c1 [Example 1-337] | ≥ 1.5 |
| Cn1c(=O)cc(Nc2ccc(CCF)cc2F)c2c(=O)n(C3CC3)c(=O)n(-c3cccc(NS(C)(=O)=O)c3)c21 [Example 1-338] | ≥ 1.5 |
| Cc1cc(I)ccc1Nc1cc(=O)n(C)c2c1c(=O)n(C1CC1)c(=O)n2-c1cccc(NS(C)(=O)=O)c1 [Example 1-340] | ≥ 1.5 |

Test system: Renal cancer cell line ACHN cell
Assay: Growth inhibitory effect against cancer cell lines (3H-thymidine uptake), ACHN
Type: cell-based
Details: Homo sapiens, ACHN
In short: as §1

| Structure (SMILES) | IC50 [µM] |
| --- | --- |
| C#Cc1ccc(Nc2cc(=O)n(C)c3c2c(=O)n(C2CC2)c(=O)n3-c2cccc(NS(=O)(=O)CCC)c2)c(F)c1 [Example 1-320] | 0.01 to 0.1 |
| Cn1c(=O)cc(Nc2ccc(I)cc2Cl)c2c(=O)n(C3CC3)c(=O)n(-c3cccc(NS(C)(=O)=O)c3)c21 [Example 1-322] | 0.01 to 0.1 |
| CNC(=O)Nc1cccc(-n2c(=O)n(C3CC3)c(=O)c3c(Nc4ccc(Br)cc4F)cc(=O)n(C)c32)c1 [Example 1-325] | 0.1 to 1 |
| CONC(=O)Nc1cccc(-n2c(=O)n(C3CC3)c(=O)c3c(Nc4ccc(Br)cc4F)cc(=O)n(C)c32)c1 [Example 1-327] | 0.1 to 1 |
| Cn1c(=O)cc(Nc2ccc3sccc3c2)c2c(=O)n(C3CC3)c(=O)n(-c3ccccc3)c21 [Example 1-328] | 0.1 to 1 |
| C#Cc1ccc(Nc2cc(=O)n(C)c3c2c(=O)n(C2CC2)c(=O)n3-c2cccc(NS(C)(=O)=O)c2)c(C)c1 [Example 1-336] | 0.01 to 0.1 |
| C#Cc1ccc(Nc2cc(=O)n(C)c3c2c(=O)n(C2CC2)c(=O)n3-c2cccc(NS(C)(=O)=O)c2)c(Cl)c1 [Example 1-337] | 0.01 to 0.1 |
| Cn1c(=O)cc(Nc2ccc(CCF)cc2F)c2c(=O)n(C3CC3)c(=O)n(-c3cccc(NS(C)(=O)=O)c3)c21 [Example 1-338] | 0.01 to 0.1 |
| Cc1cc(I)ccc1Nc1cc(=O)n(C)c2c1c(=O)n(C1CC1)c(=O)n2-c1cccc(NS(C)(=O)=O)c1 [Example 1-340] | 0.01 to 0.1 |
